# Results from PubChem BioAssay (NCI).
#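 Results reflect a 48-hour exposure of cells in 96-well plates to compound at five concentrations. At the TGI there is no net growth.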
# What was measured:
# Assay in all cases: NCI tumour cell line growth inhibition, 48 h
# [1] = tested on: KM12 colon
# [2] = tested on: DLD-1 colon
# [3] = tested on: CCRF-CEM leukemia
# [4] = tested on: SF-268 CNS
# [5] = tested on: CAKI-1 renal
# [6] = tested on: UO-31 renal
# [7] = tested on: U251 CNS
# [8] = tested on: OVCAR-4 ovarian
# [9] = tested on: P388/ADR leukemia
# [10] = tested on: HCT-15 colon
# [11] = tested on: NCI/ADR-RES ovarian
# [12] = tested on: XF 498 CNS
# [13] = tested on: HL-60(TB) leukemia
# [14] = tested on: A549 NSCLC
# [15] = tested on: KM20L2 colon
# [16] = tested on: SK-MEL-2 melanoma
# [17] = tested on: K-562 leukemia
# [18] = tested on: HT29 colon
# [19] = tested on: SK-MEL-5 melanoma
# [20] = tested on: SNB-19 CNS
# [21] = tested on: RPMI-8226 leukemia
# [22] = tested on: OVCAR-5 ovarian
# [23] = tested on: HOP-62 NSCLC
# [24] = tested on: SNB-75 CNS
# [25] = tested on: COLO 205 colon
# [26] = tested on: SK-MEL-28 melanoma
# [27] = tested on: OVCAR-3 ovarian
# [28] = tested on: IGROV1 ovarian
# [29] = tested on: OVCAR-8 ovarian
# [30] = tested on: MALME-3M melanoma
# [31] = tested on: NCI-H226 lung
# [32] = tested on: NCI-H522 lung
# [33] = tested on: UACC-62 melanoma
# [34] = tested on: SK-OV-3 ovarian
# [35] = tested on: UACC-257 melanoma
# [36] = tested on: HCT-116 colon
# [37] = tested on: HCC-2998 colon
# [38] = tested on: SF-539 CNS
# [39] = tested on: RXF 393 renal
# [40] = tested on: MOLT-4 leukemia
# [41] = tested on: NCI-H460 lung
# [42] = tested on: HOP-92 NSCLC
# [43] = tested on: SF-295 CNS
# [44] = tested on: HOP-18 NSCLC
# [45] = tested on: SW-620 colon
# [46] = tested on: A498 renal
# [47] = tested on: M19-MEL melanoma
# [48] = tested on: SN12K1 renal
# [49] = tested on: DMS 273 small cell lung
# [50] = tested on: NCI-H23 lung
# [51] = tested on: MCF7 breast
# [52] = tested on: SNB-78 CNS
# [53] = tested on: SN12C renal
smiles,measurement,setting,value
CN(C)CCNC(=O)c1ccc(Cl)c2ccc(-c3ccccc3)nc12,TGI,[1],24.2 µM
same,TGI,[2],12.7 µM
same,TGI,[3],10.8 µM
same,TGI,[4],17.5 µM
same,TGI,[5],12.9 µM
same,TGI,[6],5.21 µM
same,TGI,[7],12.7 µM
same,TGI,[8],14 µM
same,TGI,[9],5.17 µM
same,TGI,[10],14.5 µM
same,TGI,[11],12.1 µM
same,TGI,[12],11 µM
same,TGI,[13],7.65 µM
same,TGI,[14],13 µM
same,TGI,[15],12.9 µM
same,TGI,[16],20.1 µM
same,TGI,[17],6.15 µM
same,TGI,[18],11.9 µM
same,TGI,[19],4.82 µM
same,TGI,[20],17.1 µM
same,TGI,[21],7.83 µM
same,TGI,[22],13.3 µM
same,TGI,[23],11 µM
same,TGI,[24],12.3 µM
same,TGI,[25],4.85 µM
same,TGI,[26],14.6 µM
same,TGI,[27],19.4 µM
same,TGI,[28],14.1 µM
same,TGI,[29],12.3 µM
same,TGI,[30],10.6 µM
same,TGI,[31],7.3 µM
same,TGI,[32],14.9 µM
same,TGI,[33],7.83 µM
same,TGI,[34],17.4 µM
same,TGI,[35],14.2 µM
same,TGI,[36],11.3 µM
same,TGI,[37],16.6 µM
same,TGI,[38],12.8 µM
same,TGI,[39],19 µM
same,TGI,[40],5.72 µM
same,TGI,[41],8.04 µM
same,TGI,[42],7.52 µM
same,TGI,[43],16.5 µM
same,TGI,[44],13.5 µM
same,TGI,[45],14.2 µM
same,TGI,[46],12.8 µM
same,TGI,[47],13.4 µM
same,TGI,[48],9.69 µM
same,TGI,[49],10.9 µM
same,TGI,[50],16.6 µM
same,TGI,[51],16.8 µM
same,TGI,[52],20.5 µM
same,TGI,[53],15.5 µM
